Assay results reported in the METLIN SMRT retention time set (Domingo-Almenara et al. 2019).
One block for each molecule: values may come before it.

Experiment: gradient 5% acetonitrile 3 min, to 50% in 2 min, to 85% in 15 min, held 3 min, 100 µL/min
Settings: column: Zorbax Extend-C18 2.1 x 50 mm; eluents: water / acetonitrile, 0.1% formic acid
Procedure, shortened: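 Pure standards were run in mixtures of ~100 molecules by HPLC coupled to a quadrupole time-of-flight mass spectrometer. The column was a Zorbax Extend-C18 (2.1 × 50 mm, 1.8 μm) at 100 μL/min, with water and acetonitrile each containing 0.1% formic acid, in positive and negative ionization mode. Dead and dwell volumes were 40 μL and 900 μL. Retention time was taken from computationally picked adduct peaks, each manually inspected, with data collected over 3 months.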

SMILES: CCN1CCCn2cc(S(=O)(=O)Nc3ccc(Cl)cc3)cc2C1=O
RP-LC retention time: 765 s

SMILES: Cn1cccc1-c1noc(C2CCN(C(=O)C3(c4ccccc4)CC3)C2)n1 (stereo not given)
RP-LC retention time: 931 s

SMILES: Cc1c(F)cccc1NC(=O)N1C[C@@H](F)C[C@H]1C(=O)N1CCOCC1
RP-LC retention time: 653 s

SMILES: COc1ccc(NC(=O)Cn2nc3n(c2=O)CCCCC3)c(OC)c1
RP-LC retention time: 678 s

SMILES: CCc1ccccc1N1C(=O)CN(S(=O)(=O)c2ccccc2)CC1(C)C(=O)NC1CCCC1 (stereo not given)
RP-LC retention time: 960 s

SMILES: NC(=O)CCC(C(=O)O)N1C(=O)c2ccc(O)cc2C1=O (stereo not given)
RP-LC retention time: 620 s

SMILES: Cc1cc(C)cc(-c2nc(-c3ccc4c(c3)nnn4CCC(=O)N3CCCC3)no2)c1
RP-LC retention time: 1090 s

SMILES: Cc1ccc(C)c(NC(=O)N2CCN(CCn3c(C(C)C)nc4cccnc43)CC2)c1
RP-LC retention time: 621 s

SMILES: COC(=O)c1cc(C)nc2c1c(=O)n(Cc1nc(-c3ccccc3OC)oc1C)c(=O)n2C
RP-LC retention time: 971 s

SMILES: Cc1noc(N)c1-c1ccc(Cl)cc1
RP-LC retention time: 807 s

SMILES: O=C(COc1cc(O)c2c(=O)c3ccccc3oc2c1)c1ccc(Cl)cc1
RP-LC retention time: 1230 s

SMILES: Cn1cnc(S(=O)(=O)N2CCN(c3ccccn3)CC2)c1
RP-LC retention time: 536 s

SMILES: O=C(Cn1c(C(F)(F)F)nc2ccccc21)NCc1ccc2c(c1)OCCCO2
RP-LC retention time: 804 s

SMILES: CO[C@@H]1COCC[C@@H]1N[C@@H]1CC[C@@](C(=O)N2CCc3ncc(C(F)(F)F)cc3C2)(C(C)C)C1
RP-LC retention time: 709 s

SMILES: O=C(NCc1ccccc1Cl)C1CCN(c2cnc3nccnc3c2)CC1
RP-LC retention time: 769 s

SMILES: COc1ccc(N2CC(c3noc(-c4ccccc4OC)n3)CC2=O)cc1 (stereo not given)
RP-LC retention time: 858 s

SMILES: Cc1nnc2cc(N3CCN(C(=O)Nc4ccc(F)cc4F)CC3)cnn12
RP-LC retention time: 597 s

SMILES: COCCNC(=O)c1cc2c(s1)CCN(C(C)=O)C2
RP-LC retention time: 588 s

SMILES: O=C(CSc1cc(N2CCN(c3ccccc3F)CC2)ncn1)NC1CCCCC1
RP-LC retention time: 1050 s

SMILES: O=S(=O)(c1ccc(F)c(F)c1)N1CCc2nc(-c3ccc(Cl)cc3)ncc2C1
RP-LC retention time: 1230 s

SMILES: COCC1CN(S(=O)(=O)c2ccc(C#N)cc2)CC12CCNCC2 (stereo not given)
RP-LC retention time: 608 s

SMILES: COc1ccc(-c2nn3c(-c4ccc(N(C)C)cc4)nnc3s2)cc1
RP-LC retention time: 1120 s

SMILES: O=C(Cn1cnc2ccccc2c1=O)N[C@@H](C(=O)O)c1ccc(O)cc1
RP-LC retention time: 589 s

SMILES: O=C1c2ccccc2C(=O)N1c1ccc(OC(F)(F)F)cc1
RP-LC retention time: 954 s

SMILES: CCn1cc(C(=O)NCc2ccccc2C)c2cccnc21
RP-LC retention time: 809 s

SMILES: COc1ccc(CCN)cc1
RP-LC retention time: 574 s

SMILES: O=C(Cc1cc(-c2ccccc2)on1)NCCN1CCOCC1
RP-LC retention time: 566 s

SMILES: COc1ccc(C2(C(=O)N[C@@H]3CN(S(C)(=O)=O)C[C@H]3CN(C)C)CC2)cc1
RP-LC retention time: 635 s

SMILES: CN1C(=O)C(c2c(-c3ccc(Cl)cc3)[nH]c3[nH]c(=O)[nH]c(=O)c23)c2ccccc21 (stereo not given)
RP-LC retention time: 716 s

SMILES: Cc1ccc(C)c(C(=O)N2CCCC2c2nc(-c3cccc(Cl)c3)no2)c1 (stereo not given)
RP-LC retention time: 1190 s

SMILES: CSc1ccccc1CN1CCC(CNC(=O)c2cc(=O)c3ccccc3o2)CC1
RP-LC retention time: 564 s

SMILES: O=C(Nc1ccc(F)cc1)Nc1ccc2nncn2c1
RP-LC retention time: 659 s

SMILES: CN1C(=O)CSc2ccc(NC(=O)N3CCN(c4ccccn4)CC3)cc21
RP-LC retention time: 579 s

SMILES: COc1cccc(N2CC(c3nc4ccccc4n3CC(=O)N3CCCC3)CC2=O)c1 (stereo not given)
RP-LC retention time: 619 s

SMILES: Cc1ccc(-c2cn3cccnc3n2)cc1NC(=O)CC1CCCCC1
RP-LC retention time: 720 s

SMILES: CCOCCCNC(=O)C(CC)n1nc(C)c2nn(-c3ccccc3)c(C)c2c1=O (stereo not given)
RP-LC retention time: 823 s

SMILES: CCc1noc(-c2cc(=O)n(CC(=O)NC(C)CC)c3ccccc23)n1 (stereo not given)
RP-LC retention time: 816 s

SMILES: Cc1nnc(-c2cccn2CC(=O)NCc2cccc(Br)c2)o1
RP-LC retention time: 767 s

SMILES: Cc1noc([C@@H]2CC(F)(F)CN2C(=O)c2occc2C)n1
RP-LC retention time: 756 s

SMILES: CCCN1C(=O)COc2ccc(-c3csc(NC(=O)c4ccccc4Cl)n3)cc21
RP-LC retention time: 1030 s

SMILES: Cn1cccc1Cc1nnc(SCC(=O)NCc2ccco2)n1Cc1ccccc1
RP-LC retention time: 708 s

SMILES: CCCC(C(=O)O)c1c(C)nc2ccc(Cl)cc2c1-c1ccccc1 (stereo not given)
RP-LC retention time: 1010 s

SMILES: CCOC(=O)c1c(C)c(C(=O)Nc2cc(Cl)ccc2OC)c(C)n1CC
RP-LC retention time: 1180 s

SMILES: O=C(Cc1ccc(Cl)cc1)NCC(=O)Nc1nc2ccccc2[nH]1
RP-LC retention time: 660 s

SMILES: O=C(COc1ccccc1)N1CCN(Cc2noc3ccccc23)CC1
RP-LC retention time: 708 s

SMILES: CCCCN1C(=O)C(C)(C(=O)Nc2ccc(F)cc2)Oc2cccnc21 (stereo not given)
RP-LC retention time: 1030 s

SMILES: O=C(CN1C(=O)NC2(CCCCC2)C1=O)Nc1cc(F)ccc1F
RP-LC retention time: 779 s

SMILES: COc1ccc(-c2nc(N3CCCCC3)ncc2C(=O)O)cc1
RP-LC retention time: 923 s

SMILES: COc1ccc(C(=O)NC2CCN(c3cc(C)cc(C)c3)C2=O)cc1 (stereo not given)
RP-LC retention time: 878 s

SMILES: CCC(CC)C(=O)N1CCC2(CC1)CN(C)CC2c1nc(-c2ccncc2)n[nH]1 (stereo not given)
RP-LC retention time: 565 s

SMILES: O=C(CCSc1ccc(F)cc1)Nc1ccccc1-c1nc2ccccc2[nH]1
RP-LC retention time: 939 s

SMILES: CCCN1CCN(c2cc(C(=O)O)c3cc(NS(=O)(=O)c4ccc(OCC)cc4)ccc3n2)CC1
RP-LC retention time: 624 s

SMILES: COc1cccc(NC(=O)N2CCC(c3nc4ccncc4n3C(C)C)C2)c1 (stereo not given)
RP-LC retention time: 535 s

SMILES: O=C(NC1CC1)C1CCN(S(=O)(=O)c2cc(-c3noc(C4CC4)n3)cs2)CC1
RP-LC retention time: 790 s

Now from value to molecule:

RP-LC retention time: 905 s
SMILES: Cc1ccc(N2CCN(C(=O)CN3CCN(Cc4cccc(Cl)c4)C3=O)CC2)cc1

RP-LC retention time: 1070 s
SMILES: O=C(Nc1ccc2c(c1)CCN2S(=O)(=O)c1ccccc1)Nc1cc(F)ccc1F

RP-LC retention time: 1090 s
SMILES: O=c1ccc(-c2nc(-c3ccc(F)cc3)no2)nn1Cc1cccc(F)c1

RP-LC retention time: 818 s
SMILES: O=C(Nc1ccc(OCC(=O)N2CCN(c3ccccc3Cl)CC2)nc1)C1CC1

RP-LC retention time: 735 s
SMILES: CCOC(=O)c1c(C)oc2nc(C)nc(NCCN(Cc3ccccc3)C(C)C)c12

RP-LC retention time: 1000 s
SMILES: O=C(CN1C(=O)CCCc2cc(S(=O)(=O)N3CCCCC3)ccc21)Nc1ccc(F)c(Cl)c1

RP-LC retention time: 782 s
SMILES: O=C(Cn1cc(S(=O)(=O)N2CCCC2)ccc1=O)N1CCCc2ccccc21

RP-LC retention time: 1020 s
SMILES: CCCNC(=O)c1cc2c(s1)N(CC1CC1)CCCC2

RP-LC retention time: 649 s
SMILES: COc1ccc(C2Cn3cnc(C(=O)N4CCC(C(=O)NCC5CC5)CC4)c3CO2)cc1 (stereo not given)

RP-LC retention time: 734 s
SMILES: CCOC(=O)C1CCC(CNC(=O)N2CCC(N3CCN(Cc4ccccc4)C(=O)C3=O)CC2)CC1 (stereo not given)

RP-LC retention time: 649 s
SMILES: CCC(C)NC(=O)C(=O)NCc1n[nH]c(=O)c2ccccc12 (stereo not given)

RP-LC retention time: 935 s
SMILES: Cc1ccc(-n2nc(N3CCCN(S(=O)(=O)c4ccc(Cl)cc4)CC3)ccc2=O)cc1

RP-LC retention time: 1040 s
SMILES: COc1ccc(NC(=O)C2CCN(S(=O)(=O)c3ccc4[nH]c5c(c4c3)CCCCC5)CC2)cc1

RP-LC retention time: 942 s
SMILES: CCOc1ccc(NC(=O)N(C)CCc2noc(C3CCCCC3)n2)cc1

RP-LC retention time: 743 s
SMILES: CN(C)C(=O)c1ccc2c(c1)N(CC(=O)NC1CCCCC1)C(=O)C1CCCCN21 (stereo not given)

RP-LC retention time: 738 s
SMILES: Cc1ccccc1Cn1c(C)c(CNCCc2ccco2)c(C(=O)O)c1C

RP-LC retention time: 643 s
SMILES: CC(CCNC(=O)c1cc(S(=O)(=O)N2CCCCC2)ccc1Cl)N1CCCC1 (stereo not given)

RP-LC retention time: 896 s
SMILES: COc1ccc(N2CCN(C(=O)c3[nH]c(C)c(S(=O)(=O)N4CCC(C)CC4)c3C)CC2)cc1

RP-LC retention time: 885 s
SMILES: COc1ccc(-c2noc(C3CC(=O)N(c4ccc(C)cc4)C3)n2)cc1OC (stereo not given)

RP-LC retention time: 985 s
SMILES: Cc1ccc(-c2cc3c4nnc(SCC(=O)Nc5ccccc5F)n4ccn3n2)cc1C

RP-LC retention time: 862 s
SMILES: CC(C)(CSc1nnnn1-c1ccccc1)NS(=O)(=O)c1ccccc1

RP-LC retention time: 849 s
SMILES: COc1cccc(CCN2CC(=O)N(c3cccc(C)c3)[C@@H]3CS(=O)(=O)C[C@@H]32)c1

RP-LC retention time: 1170 s
SMILES: CCn1nccc1-c1cccc(-c2noc(-c3cccc(OC)c3OC)n2)c1

RP-LC retention time: 564 s
SMILES: Cc1cc(N2CCN(C)CC2)nc2ccc(NC(=O)NCc3ccco3)cc12

RP-LC retention time: 565 s
SMILES: CCN(CC)CCNC(=O)C1CCN(c2nnc3ccc(Cl)cn23)CC1

RP-LC retention time: 690 s
SMILES: CNC(=O)CN1C(=O)C2CCCCN2c2ccc(S(=O)(=O)N(C)C)cc21 (stereo not given)

RP-LC retention time: 739 s
SMILES: COc1ccc(C(=O)N2CCN(c3cc(-c4cccs4)[nH]n3)CC2)c(OC)c1

RP-LC retention time: 633 s
SMILES: FC(F)(F)c1ccccc1-n1ccnc1

RP-LC retention time: 922 s
SMILES: CCC1Oc2ccc(S(=O)(=O)N3CCC(C(=O)NCc4ccc(F)cc4)CC3)cc2NC1=O (stereo not given)

RP-LC retention time: 962 s
SMILES: C=CCN(CC=C)C(=O)Nc1cc(OC)ccc1OC

RP-LC retention time: 778 s
SMILES: Cc1nnc(-c2ccc3ccn(CC(=O)Nc4ccccc4)c3c2)o1

RP-LC retention time: 696 s
SMILES: Cc1ccc(NC(=O)C2(C)CCCCC(=O)N2)cc1 (stereo not given)

RP-LC retention time: 808 s
SMILES: CCOC(=O)C1CCN(C(=O)C2COC3(CCCCC3)N2C(=O)c2ccccc2)CC1 (stereo not given)

RP-LC retention time: 558 s
SMILES: O=C(CCC1CCCN(c2cc(NC3CC3)ncn2)C1)NCc1ccccn1 (stereo not given)

RP-LC retention time: 615 s
SMILES: CCCCNC(=O)CSc1cc(N2CCC(C(=O)NC3CC3)CC2)ncn1

RP-LC retention time: 629 s
SMILES: CCN1CCCn2nc(C3CCN(C(=O)c4n[nH]c5ccccc45)CC3)cc2C1=O
